According to article PMC10286312, “Elimination Resistance: Characterizing Multi-compartment Toxicokinetics of the Neonicotinoid Thiacloprid in the Amphipod Gammarus pulex Using Bioconcentration and Receptor-Binding Assays” (Environmental Science & Technology, 2023):

Target: T1, nAChRs (nicotinic acetylcholine receptors) in G. pulex membrane protein extract
T1 construct: gene nAChR alpha; native whole-animal crude membrane protein pellet (43,000g)
Assay: equilibrium binding to membrane protein, unlabelled ligand, ultracentrifugation, online-SPE LC-HRMS/MS
Parameters: species or system Gammarus pulex
Details: 10 mM Tris-HCl pH 7.4, 23 °C, 2 h; one-site specific binding model; no displacement control described; read-out: best fit
Text: equilibrium binding to membrane protein, unlabelled ligand, ultracentrifugation, online-SPE LC-HRMS/MS on nAChRs (nicotinic acetylcholine receptors) in G. pulex membrane protein extract

N#C/N=C1\SCCN1Cc1ccc(Cl)nc1 [thiacloprid]
Kd: 0.41 nM
